# System: Crude diglycosidase
# Test: Examination of substrate concentration in the conversion into isoflavone aglycons by diglycosidase using soybean materials
# Format: biochemical, Penicillium multicolor IAM7153
# How it was run: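 Reaction at 55° C, shaken, pH 4.0 (20 mM acetate), using crude diglycosidase from a 1.88 AU/mL enzyme solution on soy flour, soymilk, defatted soybean or soy protein concentrate at 2, 5, 10, 20 or 30% (w/v). Isoflavone aglycons quantified by HPLC of ethanol extracts at 0, 1, 3, 6 h.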
smiles,measurement,setting,value
O=c1c(-c2ccc(O)cc2)coc2cc(O)cc(O)c12 [genistein],Decomposition efficiency of genistin family in defatted soybean,"substrate concentration 2%, heat treatment of enzyme no, reaction time 0 h",15.1
same,Decomposition efficiency of genistin family in defatted soybean,"substrate concentration 2%, heat treatment of enzyme no, reaction time 1 h",68.6
same,Decomposition efficiency of genistin family in defatted soybean,"substrate concentration 2%, heat treatment of enzyme no, reaction time 3 h",83.0
same,Decomposition efficiency of genistin family in defatted soybean,"substrate concentration 2%, heat treatment of enzyme no, reaction time 6 h",88.6
same,Decomposition efficiency of genistin family in defatted soybean,"substrate concentration 2%, heat treatment of enzyme yes, reaction time 6 h",18.0
same,Decomposition efficiency of genistin family in defatted soybean,"substrate concentration 5%, heat treatment of enzyme no, reaction time 0 h",14.2
same,Decomposition efficiency of genistin family in defatted soybean,"substrate concentration 5%, heat treatment of enzyme no, reaction time 1 h",61.2
same,Decomposition efficiency of genistin family in defatted soybean,"substrate concentration 5%, heat treatment of enzyme no, reaction time 3 h",69.9
same,Decomposition efficiency of genistin family in defatted soybean,"substrate concentration 5%, heat treatment of enzyme no, reaction time 6 h",80.7
same,Decomposition efficiency of genistin family in defatted soybean,"substrate concentration 5%, heat treatment of enzyme yes, reaction time 6 h",15.4
same,Decomposition efficiency of genistin family in defatted soybean,"substrate concentration 10%, heat treatment of enzyme no, reaction time 0 h",14.1
same,Decomposition efficiency of genistin family in defatted soybean,"substrate concentration 10%, heat treatment of enzyme no, reaction time 1 h",57.2
same,Decomposition efficiency of genistin family in defatted soybean,"substrate concentration 10%, heat treatment of enzyme no, reaction time 3 h",64.0
same,Decomposition efficiency of genistin family in defatted soybean,"substrate concentration 10%, heat treatment of enzyme no, reaction time 6 h",70.3
same,Decomposition efficiency of genistin family in defatted soybean,"substrate concentration 10%, heat treatment of enzyme yes, reaction time 6 h",14.5
